Measured values reported in US20240217983A1, “GPR119 AGONISTS” (Kallyope, Inc., priority 2021, published 2024).
pEC50: −log10 of the molar value. Counter-ions that a name gives are not always drawn.

Target: T1, human GPR119 (hGPR119) (Homo sapiens, UniProt Q8TDV5)
T1 construct: expressed in transfected cells
T1 sequence (Q8TDV5 1-335): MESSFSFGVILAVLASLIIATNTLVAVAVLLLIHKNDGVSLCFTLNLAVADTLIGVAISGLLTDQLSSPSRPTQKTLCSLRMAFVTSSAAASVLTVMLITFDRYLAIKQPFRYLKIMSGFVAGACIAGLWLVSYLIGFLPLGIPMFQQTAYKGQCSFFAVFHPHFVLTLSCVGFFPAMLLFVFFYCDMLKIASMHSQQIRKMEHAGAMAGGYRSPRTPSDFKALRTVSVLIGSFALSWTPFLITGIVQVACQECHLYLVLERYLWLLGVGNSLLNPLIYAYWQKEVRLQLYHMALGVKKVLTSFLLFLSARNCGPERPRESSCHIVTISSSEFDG
Assay: cAMP accumulation assay (Cisbio cAMP Gs dynamic HTRF kit) in CHO-K1 cells stably expressing human GPR119
Format: cell-based
Settings: 4-parameter fit; for Emax: 1 h, % activity normalized to Max and Min controls; for pEC50: 60 minutes at 37° C.
Summary of the method: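 CHO-K1 cells stably expressing hGPR119, used as assay-ready frozen stocks at ~10,000 cells/well, exposed to compound dose-response in stimulation buffer with Tween 80 for 60 min at 37° C. cAMP read by HTRF (665/620 nm ratio), normalised to Max/Min controls; EC50 and Max activity from 4-parameter fit.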

| Emax | pEC50 | SMILES |
| --- | --- | --- |
| 100 to 130% | ≥ 7.00 | O=C(Cc1ccc(OCCCC2CCN(c3ncc(Cl)cn3)CC2)cc1F)N1CCC2(CC1)CCN2C[C@H](O)[C@@H](O)[C@H](O)[C@H](O)CO [Example 68, 2-(4-(3-(1-(5-chloropyrimidin-2-yl)piperidin-4-yl)propoxy)-2-fluorophenyl)-1-(1-((2S,3R,4R,5R)-2,3,4,5,6-pentahydroxyhexyl)-1,7-diazaspiro[3.5]nonan-7-yl)ethan-1-one] |
| 50 to 100% | < 5.00 | O=C(Cc1ccc(OCCCC2CCN(c3ncc(Cl)cn3)CC2)cc1F)N1CC2(CN(C[C@H](O)[C@H](O)[C@H](O)CO)C2)C1 [Example 25, 2-(4-(3-(1-(5-chloropyrimidin-2-yl)piperidin-4-yl)propoxy)-2-fluorophenyl)-1-(6-((2S,3S,4R)-2,3,4,5-tetrahydroxypentyl)-2,6-diazaspiro[3.3]heptan-2-yl)ethan-1-one formate] |
| 100 to 130% | ≥ 7.00 | COCc1cnc(N2CCC(CCCOc3cc(F)c(CC(=O)N4CCN(C[C@H](O)[C@@H](O)[C@H](O)[C@H](O)CO)CC4)c(F)c3)CC2)nc1 [Example 99, 2-(2,6-difluoro-4-(3-(1-(5-(methoxymethyl)pyrimidin-2-yl)piperidin-4-yl)propoxy)phenyl)-1-(4-((2S,3R,4R,5R)-2,3,4,5,6-pentahydroxyhexyl)piperazin-1-yl)ethan-1-one] |
| 100 to 130% | ≥ 7.00 | O=C(Cc1ccc(OCCCC2CCN(c3ncc(Cl)cn3)CC2)cc1F)N1CCN(C[C@H](O)[C@@H](O)[C@H](O)[C@H](O)CO)C2CC21 (stereo partly drawn) [Example 59, 2-(4-(3-(1-(5-chloropyrimidin-2-yl)piperidin-4-yl)propoxy)-2-fluorophenyl)-1-(5-((2S,3R,4R,5R)-2,3,4,5,6-pentahydroxyhexyl)-2,5-diazabicyclo[4.1.0]heptan-2-yl)ethan-1-one] |
| 100 to 130% | ≥ 7.00 | O=C(Cc1ccc(OCCCC2CCN(c3ncc(Cl)cn3)CC2)cc1F)N1CC2(C1)OCC2NC[C@H](O)[C@H](O)[C@H](O)CO (stereo partly drawn) [Example 82, 2-(4-(3-(1-(5-chloropyrimidin-2-yl)piperidin-4-yl)propoxy)-2-fluorophenyl)-1-(3-(((2S,3S,4R)-2,3,4,5-tetrahydroxypentyl)amino)-1-oxa-6-azaspiro[3.3]heptan-6-yl)ethan-1-one] |
| 100 to 130% | ≥ 7.00 | O=C(Cc1ccc(OCCCC2CCN(c3ncc(Cl)cn3)CC2)cc1F)N1CC2(CCCN2C(=O)CCCCS(=O)(=O)O)C1 [Example 18, 5-(2-(2-(4-(3-(1-(5-chloropyrimidin-2-yl)piperidin-4-yl)propoxy)-2-fluorophenyl)acetyl)-2,5-diazaspiro[3.4]octan-5-yl)-5-oxopentane-1-sulfonic acid] |
| 100 to 130% | ≥ 7.00 | O=C(Cc1ccc(OCCCC2CCN(c3ncc(Cl)cn3)CC2)cc1F)N1CCC2(CN(C[C@H](O)[C@@H](O)[C@H](O)[C@H](O)CO)C2)C1 [Example 29, 2-(4-(3-(1-(5-chloropyrimidin-2-yl)piperidin-4-yl)propoxy)-2-fluorophenyl)-1-(2-((2S,3R,4R,5R)-2,3,4,5,6-pentahydroxyhexyl)-2,6-diazaspiro[3.4]octan-6-yl)ethan-1-one] |
| 100 to 130% | ≥ 7.00 | O=C(Cc1ccc(OCCCC2CCN(c3ncc(Cl)cn3)CC2)cc1F)N1CC2(C1)N(C(=O)CCCCS(=O)(=O)O)CC2(F)F [Example 19, 5-(6-(2-(4-(3-(1-(5-chloropyrimidin-2-yl)piperidin-4-yl)propoxy)-2-fluorophenyl)acetyl)-3,3-difluoro-1,6-diazaspiro[3.3]heptan-1-yl)-5-oxopentane-1-sulfonic acid] |

| SMILES | Emax | pEC50 |
| --- | --- | --- |
| O=C(Cc1ccc(OCCCC2CCN(c3ncc(Cl)cn3)CC2)cc1F)N1CCN(C[C@H](O)[C@H](O)[C@H](O)CO)CC1 [Example 71, 2-(4-(3-(1-(5-chloropyrimidin-2-yl)piperidin-4-yl)propoxy)-2-fluorophenyl)-1-(4-((2S,3S,4R)-2,3,4,5-tetrahydroxypentyl)piperazin-1-yl)ethan-1-one] | 100 to 130% | ≥ 7.00 |
